Read-outs that look alike come from different tables or passages of the source.
Tested on: rice blast fungus
Assay type: cell-based
Conditions: for Preventive value: 1,000 μl on oatmeal culture medium, 25° C. for 7 days, elongation length of hyphae vs without treatment

With `COc1nc(-c2ccc3cnccc3n2)nc(F)c1C(F)(F)F` [Example 4, 6-fluoro-4-methoxy-2-(2-(1,6-naphthyridyl))-5-trifluoromethylpyrimidine] the “control activity against rice blast fungus” value (conclusion from the results in Table 1) was “has a control activity against rice blast fungus”, the Preventive value (test solution concentration 1000 ppm) was 76 and the Preventive value (test solution concentration 2000 ppm) was 100.
